# US10351547B2, “Somatostatin modulators and uses thereof” (priority 2016, dated 2019)
# Where two headings read alike, the source gives them in different places.
# Biological target: human SSTR2 (Homo sapiens (Human), UniProt P30874)
# Assay: Human SSTR2 intracellular cAMP functional assay for agonists (HTRF)
# Format: cell-based
# Procedure, shortened: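 Cells bearing human SSTR2 exposed to compound for 20 minutes at 37 °C; after lysis, cAMP measured by time-resolved fluorescence (HTRF) and converted via a standard curve. EC50 calculated from cAMP versus compound concentration.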
# [1] = CHO-K1 cells stably expressing human SSTR2, NKH477-stimulated cAMP, read-out: EC50 (inhibition of cAMP activities via human SST2R)
# Sequence of human SSTR2 (P30874 whole entry): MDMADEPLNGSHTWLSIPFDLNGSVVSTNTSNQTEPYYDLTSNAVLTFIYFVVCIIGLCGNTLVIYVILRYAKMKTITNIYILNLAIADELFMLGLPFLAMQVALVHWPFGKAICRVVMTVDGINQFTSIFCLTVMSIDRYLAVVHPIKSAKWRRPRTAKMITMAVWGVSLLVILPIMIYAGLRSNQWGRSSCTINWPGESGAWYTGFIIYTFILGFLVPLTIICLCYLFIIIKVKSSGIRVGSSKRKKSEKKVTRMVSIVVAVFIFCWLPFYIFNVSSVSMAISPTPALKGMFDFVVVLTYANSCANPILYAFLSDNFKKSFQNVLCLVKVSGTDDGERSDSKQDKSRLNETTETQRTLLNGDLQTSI
SMILES,EC50,EC50 [1]
"NC1CCN(c2c(-c3cc(F)cc(F)c3)cnc3ccc(-c4cc(Cl)c5[nH]c(=O)[nH]c5c4)cc23)CC1 [2-141, 6-[4-(4-aminopiperidin-1-yl)-3-(3,5-difluorophenyl)quinolin-6-yl]-4-chloro-2,3-dihydro-1H-1,3-benzodiazol-2-one]",10 to 100 nM,–
"NC1CCN(c2c(-c3cc(F)cc(F)c3)cnc3ccc(-c4ccc5oc(=O)[nH]c5c4)cc23)CC1 [2-142, 5-[4-(4-aminopiperidin-1-yl)-3-(3,5-difluorophenyl)quinolin-6-yl]-2,3-dihydro-1,3-benzoxazol-2-one]",–,< 10 nM
N#Cc1cccc(-c2ccc3ncc(-c4cc(F)cc(F)c4)c(N4CC[C@@H](N)[C@H](C(=O)O)C4)c3c2)c1O [2-145],–,100 to 1000 nM
"N#Cc1cc(Cl)c(F)c(-c2ccc3ncc(-c4cc(F)cc(F)c4)c(N4CCC(N)CC4)c3c2)c1O [2-147, 3-[4-(4-aminopiperidin-1-yl)-3-(3,5-difluorophenyl)quinolin-6-yl]-5-chloro-4-fluoro-2-hydroxybenzonitrile]",10 to 100 nM,–
"COC(=O)Nc1c(C#N)cccc1-c1ccc2ncc(-c3cc(F)cc(F)c3)c(N3CCC(N)CC3)c2c1 [2-148, methyl N-{2-[4-(4-aminopiperidin-1-yl)-3-(3,5-difluorophenyl)quinolin-6-yl]-6-cyanophenyl}carbamate]",–,< 10 nM
"NC1CCN(c2c(-c3cc(F)cc(F)c3)cnc3ccc(-c4c(O)c(F)cc(F)c4F)cc23)CC1 [2-150, 2-[4-(4-aminopiperidin-1-yl)-3-(3,5-difluorophenyl)quinolin-6-yl]-3,4,6-trifluorophenol]",–,< 10 nM
"NC1CCN(c2c(-c3cc(F)cc(F)c3)cnc3ccc(-c4cncc(F)c4C=NO)cc23)CC1 [2-152, 1-[3-(3,5-difluorophenyl)-6-{5-fluoro-4-[(hydroxyimino)methyl]pyridin-3-yl}quinolin-4-yl]piperidin-4-amine]",–,< 10 nM
"CONC(=O)Nc1c(F)cc(F)cc1-c1ccc2ncc(-c3cc(F)cc(OC)c3)c(N3CCC(N)CC3)c2c1 [2-164, 1-{2-[4-(4-aminopiperidin-1-yl)-3-(3-fluoro-5-methoxyphenyl)quinolin-6-yl]-4,6-difluorophenyl}-3-methoxyurea]",–,< 10 nM
"COC(=O)Nc1c(F)cc(F)cc1-c1ccc2ncc(-c3cc(F)cc(OC)c3)c(N3CCC(N)CC3)c2c1 [2-165, methyl N-{2-[4-(4-aminopiperidin-1-yl)-3-(3-fluoro-5-methoxyphenyl)quinolin-6-yl]-4,6-difluorophenyl}carbamate]",–,< 10 nM
"COc1cc(F)cc(-c2cnc3ccc(-c4cccc(F)c4C=NO)cc3c2N2CCC(N)CC2)c1 [2-166, 1-(6-{3-fluoro-2-[(hydroxyimino)methyl]phenyl}-3-(3-fluoro-5-methoxyphenyl)quinolin-4-yl)piperidin-4-amine]",–,< 10 nM
"COC(=O)Nc1c(C#N)cccc1-c1ccc2ncc(-c3cc(F)cc(OC)c3)c(N3CCC(N)CC3)c2c1 [2-167, methyl N-{2-[4-(4-aminopiperidin-1-yl)-3-(3-fluoro-5-methoxyphenyl)quinolin-6-yl]-6-cyanophenyl}carbamate]",–,< 10 nM
"Cc1cc(F)cc(-c2cnc3ccc(-c4cncc(F)c4C=NO)cc3c2N2CCC(N)CC2)c1 [2-168, 1-(6-{5-fluoro-4-[(hydroxyimino)methyl]pyridin-3-yl}-3-(3-fluoro-5-methylphenyl)quinolin-4-yl)piperidin-4-amine]",–,< 10 nM
"Cc1cc(F)cc(-c2cnc3ccc(-c4cncc(F)c4N)cc3c2N2CCC(N)CC2)c1 [2-169, 3-[4-(4-aminopiperidin-1-yl)-3-(3-fluoro-5-methylphenyl)quinolin-6-yl]-5-fluoropyridin-4-amine]",–,< 10 nM
"CONC(=O)Nc1c(F)cncc1-c1ccc2ncc(-c3cc(C)cc(F)c3)c(N3CCC(N)CC3)c2c1 [2-172, 1-{3-[4-(4-aminopiperidin-1-yl)-3-(3-fluoro-5-methylphenyl)quinolin-6-yl]-5-fluoropyridin-4-yl}-3-methoxyurea]",–,< 10 nM
"COC(=O)Nc1c(F)cccc1-c1ccc2ncc(-c3cc(F)cc(OC)c3)c(N3CCC(N)CC3)c2c1 [2-173, methyl N-{2-[4-(4-aminopiperidin-1-yl)-3-(3-fluoro-5-methoxyphenyl)quinolin-6-yl]-6-fluorophenyl}carbamate]",–,< 10 nM
"CONC(=O)Nc1c(F)cccc1-c1ccc2ncc(-c3cc(F)cc(OC)c3)c(N3CCC(N)CC3)c2c1 [2-174, 1-{2-[4-(4-aminopiperidin-1-yl)-3-(3-fluoro-5-methoxyphenyl)quinolin-6-yl]-6-fluorophenyl}-3-methoxyurea]",–,< 10 nM
"COc1cc(F)cc(-c2cnc3ccc(-c4cccc(F)c4NC(=O)N4CCC4)cc3c2N2CCC(N)CC2)c1 [2-175, N-{2-[4-(4-aminopiperidin-1-yl)-3-(3-fluoro-5-methoxyphenyl)quinolin-6-yl]-6-fluorophenyl}azetidine-1-carboxamide]",10 to 100 nM,–
"NC1CCN(c2c(-c3cc(F)cc(C(F)(F)F)c3)cnc3ccc(-c4cncc(F)c4C=NO)cc23)CC1 [2-176, 1-(6-{5-fluoro-4-[(hydroxyimino)methyl]pyridin-3-yl}-3-[3-fluoro-5-(trifluoromethyl)phenyl]quinolin-4-yl)piperidin-4-amine]",–,< 10 nM

SMILES,EC50,EC50 [1]
"N#Cc1cncc(-c2ccc3ncc(-c4cc(F)cc(F)c4)c(N4CCC(N)CC4)c3c2)c1N [2-177, 4-amino-5-[4-(4-aminopiperidin-1-yl)-3-(3,5-difluorophenyl)quinolin-6-yl]pyridine-3-carbonitrile]",–,< 10 nM
"Cc1cc(F)cc(-c2cnc3ccc(-c4cc(F)cnc4N)cc3c2N2CCC(N)CC2)c1 [2-178, 3-[4-(4-aminopiperidin-1-yl)-3-(3-fluoro-5-methylphenyl)quinolin-6-yl]-5-fluoropyridin-2-amine]",–,< 10 nM
"N#Cc1cc(F)c(F)c(-c2ccc3ncc(-c4cc(F)cc(F)c4)c(N4CCC(N)CC4)c3c2)c1N [2-179, 2-amino-3-[4-(4-aminopiperidin-1-yl)-3-(3,5-difluorophenyl)quinolin-6-yl]-4,5-difluorobenzonitrile]",–,< 10 nM
"COC(=O)Nc1c(C#N)cc(F)c(F)c1-c1ccc2ncc(-c3cc(F)cc(F)c3)c(N3CCC(N)CC3)c2c1 [2-180, methyl N-{2-[4-(4-aminopiperidin-1-yl)-3-(3,5-difluorophenyl)quinolin-6-yl]-6-cyano-3,4-difluorophenyl}carbamate]",–,< 10 nM
"Cc1cc(F)cc(-c2cnc3ccc(-c4cncc(Cl)c4N)cc3c2N2CCC(N)CC2)c1 [2-181, 3-[4-(4-aminopiperidin-1-yl)-3-(3-fluoro-5-methylphenyl)quinolin-6-yl]-5-chloropyridin-4-amine]",–,< 10 nM
"CONC(=O)Nc1ncc(F)cc1-c1ccc2ncc(-c3cc(C)cc(F)c3)c(N3CCC(N)CC3)c2c1 [2-183, 1-{3-[4-(4-aminopiperidin-1-yl)-3-(3-fluoro-5-methylphenyl)quinolin-6-yl]-5-fluoropyridin-2-yl}-3-methoxyurea]",–,< 10 nM
"COC(=O)Nc1c(Cl)cncc1-c1ccc2ncc(-c3cc(C)cc(F)c3)c(N3CCC(N)CC3)c2c1 [2-184, methyl N-{3-[4-(4-aminopiperidin-1-yl)-3-(3-fluoro-5-methylphenyl)quinolin-6-yl]-5-chloropyridin-4-yl}carbamate]",–,< 10 nM
COC(=O)Nc1ccc(C#N)cc1-c1ccc2ncc(-c3cc(F)cc(F)c3)c(N3CCC(N)CC3)c2c1 [2-185],–,< 10 nM
"CONC(=O)Nc1c(Cl)cncc1-c1ccc2ncc(-c3cc(C)cc(F)c3)c(N3CCC(N)CC3)c2c1 [2-186, 1-{3-[4-(4-aminopiperidin-1-yl)-3-(3-fluoro-5-methylphenyl)quinolin-6-yl]-5-chloropyridin-4-yl}-3-methoxyurea]",–,< 10 nM
"Cc1cc(F)cc(-c2cnc3ccc(-c4cncc(C#N)c4N)cc3c2N2CCC(N)CC2)c1 [2-187, 4-amino-5-[4-(4-aminopiperidin-1-yl)-3-(3-fluoro-5-methylphenyl)quinolin-6-yl]pyridine-3-carbonitrile]",–,< 10 nM
"Cn1ncc(-c2ccc3ncc(-c4cc(F)cc(F)c4)c(N4CCC(N)CC4)c3c2)c1C=NO [2-188, 1-[3-(3,5-difluorophenyl)-6-{5-[(hydroxyimino)methyl]-1-methyl-1H-pyrazol-4-yl}quinolin-4-yl]piperidin-4-amine]",–,< 10 nM
"CONC(=O)Nc1ccc(C#N)cc1-c1ccc2ncc(-c3cc(F)cc(F)c3)c(N3CCC(N)CC3)c2c1 [2-189, 1-{2-[4-(4-aminopiperidin-1-yl)-3-(3,5-difluorophenyl)quinolin-6-yl]-4-cyanophenyl}-3-methoxyurea]",–,< 10 nM
"CON(C)C(=O)Nc1c(C#N)cc(F)c(F)c1-c1ccc2ncc(-c3cc(F)cc(F)c3)c(N3CCC(N)CC3)c2c1 [2-191, 1-{2-[4-(4-aminopiperidin-1-yl)-3-(3,5-difluorophenyl)quinolin-6-yl]-6-cyano-3,4-difluorophenyl}-3-methoxy-3-methylurea]",–,< 10 nM
"NC1CCN(c2c(-c3cc(F)cc(F)c3)cnc3ccc(-c4cncc(Cl)c4C=NO)cc23)CC1 [2-192, 1-(6-{5-chloro-4-[(hydroxyimino)methyl]pyridin-3-yl}-3-(3,5-difluorophenyl)quinolin-4-yl)piperidin-4-amine]",–,< 10 nM
"COCOc1c(C#N)cc(F)cc1-c1ccc2ncc(-c3cc(F)cc(F)c3)c(N3CCC(N)CC3)c2c1 [2-194, 3-[4-(4-aminopiperidin-1-yl)-3-(3,5-difluorophenyl)quinolin-6-yl]-5-fluoro-2-(methoxymethoxy)benzonitrile]",–,< 10 nM
"NC1CCN(c2c(-c3cc(F)cc(F)c3)cnc3ccc(-c4ncccc4C=NO)cc23)CC1 [2-195, 1-[3-(3,5-difluorophenyl)-6-{3-[(hydroxyimino)methyl]pyridin-2-yl}quinolin-4-yl]piperidin-4-amine]",–,< 10 nM
"NC1CCN(c2c(-c3cc(F)cc(F)c3)cnc3ccc(-c4cccnc4C=NO)cc23)CC1 [2-196, 1-[3-(3,5-difluorophenyl)-6-{2-[(hydroxyimino)methyl]pyridin-3-yl}quinolin-4-yl]piperidin-4-amine]",–,< 10 nM
